{
  "source": "paper PMC7770833",
  "about": "“Design, Synthesis, and Biological Evaluation of a Series of Oxazolone Carboxamides as a Novel Class of Acid Ceramidase Inhibitors” (Journal of Medicinal Chemistry, 2020)",
  "key": {"[1]": {"experiment": "In vivo PK study in C57BL/6 mice", "set-up": "species or system mouse", "protocol": "C57 B6/J male mice, 8 weeks old (22–24 g), were used (Charles River, Calco). All procedures were performed in accordance with the Ethical Guidelines of European Communities Council (Directive 2010/63/EU of 22 September 2010) and accepted by the Italian Ministry of Health. All efforts were made to minimize animal suffering and to use the minimal number of animals required to produce reliable results, according to the “3Rs rules”. Animals were group-housed in ventilated cages and had free access to food and water. They were maintained under a 12 h light/dark cycle (lights on at 8:00 am) at a controlled temperature (21 ± 1 °C) and relative humidity (55 ± 10%). 32b was administrated intravenously (i.v.) at 3 mg/kg/5 mL, vehicle: PEG400/Tween 80/saline solution (10/10/80% in volume, respectively) via tail vein injection and via oral administration (p.o.) at 10 mg/kg/10 mL, vehicle: PEG400/Tween 80/saline solution (10/10/80% in volume, respectively) by an oral gavage. Sample collection. Samples were collected at 5 min, 15 min, 30 min, 1 h, 2 h, and 4 h (i.v. administration) and at 15 min, 30 min, 1 h, 2 h, 4 h, and 6 h (p.o. administration). N = 3 animals per dose time point were treated. Plasma samples were centrifuged at 21,100g for 15 min at 4 °C. An aliquot of each sample was extracted (1:3) with cold CH3CN containing 200 nM of an appropriate internal standard being a close analogue of compound 32b. A calibration curve was prepared in blank mouse plasma over a 1 nM–10 μM range. Three quality controls were prepared by spiking compound 32b in the blank mouse plasma to 20, 200, and 2000 nM as final concentrations. The calibrators and quality controls were extracted (1:3) with the same extraction solution as the plasma samples. The plasma samples, the calibrators, and quality controls were centrifuged at 3270 × g for 15 min at 4 °C. The supernatants were further diluted (1:1) with H2O and analyzed by LC/MS–MS on a Waters Acquity UPLC/MS TQD system consisting of TQD) MS equipped with an ESI interface and a PDA detector. ESI was applied in positive mode. Compound-dependent parameters such as MRM transitions and collision energy were developed for compound 32b and the internal standard. The analyses were run on an Acquity UPLC BEH C18 (50 × 2.1 mm ID, particle size 1.7 μm) with a VanGuard BEH C18 pre-column (5 × 2.1 mm ID, particle size 1.7 μm) at 40 °C. For plasma samples, the mobile phase was H2O + 0.1% HCOOH (A) and CH3CN + 0.1% HCOOH (B) at a flow rate = 0.5 mL/min. A linear gradient was applied starting at 20% B with an initial hold for 0.2 min, then 20–100% B in 2 min. All samples (plasma samples, calibrators, and quality controls) were quantified by a MRM peak area response factor in order to determine the levels of compound 32b in the plasma. The concentrations versus time were plotted and the profiles were fitted using PK Solutions Excel Application (Summit Research Service, USA) in order to determine the PK parameters."}, "hAC": {"biological_target": "T1, hAC (Homo sapiens, UniProt Q13510)", "T1 sequence (Q13510 22-395)": "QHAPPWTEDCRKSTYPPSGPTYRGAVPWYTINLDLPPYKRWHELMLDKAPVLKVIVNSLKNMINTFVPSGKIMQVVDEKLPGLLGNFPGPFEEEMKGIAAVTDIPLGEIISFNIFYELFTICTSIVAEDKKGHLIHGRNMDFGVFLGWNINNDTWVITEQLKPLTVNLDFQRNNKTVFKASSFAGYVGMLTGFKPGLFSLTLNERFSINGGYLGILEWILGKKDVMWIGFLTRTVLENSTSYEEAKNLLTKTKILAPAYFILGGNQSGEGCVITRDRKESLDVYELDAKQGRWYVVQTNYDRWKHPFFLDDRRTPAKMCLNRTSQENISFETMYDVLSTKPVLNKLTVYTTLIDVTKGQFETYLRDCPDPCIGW", "experiment": "hAC LC/MS-based activity assay in SH-SY5Y cells", "type": "cell-based", "set-up": "host or cells: SH-SY5Y human neuroblastoma cells", "settings": "1, 2.5, 5, 10 μM for 3 h; 10 μM for 1, 3, 6 h", "protocol": "SH-SY5Y cells were purchased from Sigma Aldrich (Italy) and cultured in DMEM containing 10% FBS at 37 °C and 5% CO2. Drugs were dissolved in DMSO (10 mM) and diluted in cell culture medium with reduced serum (1%) for cell treatments.\nhAC activity measurement was performed as previously described.[59],[61] Total lysates from cells were diluted in assay buffer (100 mM sodium phosphate, 0.1% Nonidet P-40, 150 mM NaCl, 3 mM DTT, 100 mM sodium citrate, pH 4.5). Reactions were started by the addition of 50 μM N-lauroyl ceramide (Nu-Chek Prep, Elysian, MN) and carried out for 1 h at 37 °C. Reactions were stopped by the addition of a mixture of CHCl3/MeOH (2:1) spike with 11-lauroleic acid (1.0 nmol, NuChek Prep). The organic phases were collected, dried under N2, and analyzed by UPLC/MS (Acquity, Waters) in the negative-ion mode monitoring the reaction product (lauric acid, m/z: 199) using 11-lauroleic acid as the internal standard. Lipids were eluted on an Acquity UPLC BEH C18 column (50 mm length, 2.1 mm ID, 1.7 μm pore size, Waters) column at 0.5 mL/min for 1.5 min with a gradient of CH3CN and H2O, both containing 0.25% AcOH and 5 mM NH4OAc (70–100% CH3CN in 0.5 min, 100% CH3CN for 0.5 min, 70% CH3CN for 0.4 min). The column temperature was 40 °C. […] The [M – H]^− ion was monitored in the selected-ion monitoring mode (m/z values: lauric acid 199, 11-lauroleic acid 197.35). […]"}},
  "data": [
    {"molecule": "CCCCCNC(=O)n1cc(-c2ccc(F)cc2C2CCN(C)CC2)oc1=O", "note": "[Compound 32b, 5-[4-Fluoro-2-(1-methyl-4-piperidyl)phenyl]-2-oxo-N-pentyl-oxazole-3-carboxamide]", "values": [
      {"measurement": "Vdss (mL/kg)", "setting": "[1]; 10 mg/kg, p.o.", "result": "32 877 mL/kg"},
      {"measurement": "AUC at 4 h", "setting": "[1]; male, mouse, iv, 3 mg/kg, plasma", "result": 533, "unit": "ng·h/mL"},
      {"measurement": "clearance at 4 h", "setting": "[1]; male, mouse, plasma, iv, 3 mg/kg", "result": 72, "unit": "mL/min/kg"},
      {"measurement": "Vd at 4 h", "setting": "[1]; male, mouse, plasma, iv, 3 mg/kg, i.v., read-out: Vdss (converted)", "result": 12.4, "unit": "L/kg"},
      {"measurement": "AUC at 4 h", "setting": "[1]; male, mouse, po, 10 mg/kg, plasma", "result": 709, "unit": "ng·h/mL"},
      {"measurement": "hAC activity in SH-SY5Y cells", "setting": "hAC", "result": "time-dependent reduction"}
    ]}
  ]
}
